Results on 20 compounds are retold here after PubChem BioAssay (NCI).

SMILES strings stand for the structures. Values joined by “and” are separate entries in the source; they are usually repeats but may differ in a detail not shown here. Equal entries are not always repeated.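 Assay format: 96-well plates, 48-hour exposure. Here, GI50 denotes the concentration required for 50% inhibition of growth. At the TGI there is no net growth.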

Test systems include NCI/ADR-RES ovarian; HS 578T breast; MCF7 breast.
Holding throughout (assay): NCI tumour cell line growth inhibition, 48 h

Turning to `CC(C)C[C@@H]1NC(=O)[C@@H]2CCCN2C(=O)[C@@H]2CCCN2C(=O)[C@H](CC(C)C)NC(=O)[C@H](CO)NC(=O)[C@H](CCCCN)NC(=O)[C@H]([C@H](C)O)NC(=O)[C@@H]2CCCC[C@@H](NC1=O)C(=O)N[C@@H](Cc1ccccc1)C(=O)N1CCC[C@H]1C(=O)N[C@@H](CC(=O)O)C(=O)NCC(=O)N[C@@H](CCCN=C(N)N)C(=O)N2`, the GI50 in the assay on NCI/ADR-RES ovarian, in the assay on HS 578T breast and with MCF7 breast was above 50 µM each time. Moreover, the TGI with NCI/ADR-RES ovarian, in the assay with HS 578T breast and with MCF7 breast was above 50 µM each time.

For the compound `C=CC(=O)Nc1cccc(C)c1Nc1ncc2cc(-c3c(Cl)c(OC)cc(OC)c3Cl)ccc2n1`, the GI50 in the assay with NCI/ADR-RES ovarian is 4.07 µM; in the assay on HS 578T breast, 13.8 µM; in the assay with MCF7 breast, 1.97 µM. In addition, the TGI in the assay with NCI/ADR-RES ovarian is 66.5 µM; with HS 578T breast, above 100 µM; in the assay with MCF7 breast, above 100 µM.

Consider `CN(C)c1ccc(O)c2c1C[C@H]1C[C@H]3[C@H](N(C)C)C(=O)C(C(N)=O)=C(O)[C@@]3(O)C(=O)C1=C2O`, for which the values for the GI50 in the assay with NCI/ADR-RES ovarian, with HS 578T breast and in the assay with MCF7 breast were 11.6 µM, 3.36 µM and 10.1 µM, respectively. The figures for the TGI in the assay with NCI/ADR-RES ovarian, in the assay with HS 578T breast and in the assay on MCF7 breast were above 100 µM, 34.2 µM and above 100 µM, respectively.

`CC(C)CCc1c(Cl)nc(Cl)nc1Cl`: the results for the TGI in the assay on NCI/ADR-RES ovarian, in the assay with HS 578T breast and in the assay on MCF7 breast were above 100 µM, 56.8 µM and 40.7 µM, respectively.

Regarding `Cc1ccc(S(=O)(=O)Nc2nc3ccccc3nc2Nc2ccc3nsnc3c2)cc1`, the GI50 in the assay on NCI/ADR-RES ovarian is 3.2 µM and 3.52 µM; with HS 578T breast it was 5.62 µM and 4.21 µM; in the assay on MCF7 breast, 6.55 µM and 4.6 µM. The TGI with NCI/ADR-RES ovarian, with HS 578T breast and in the assay with MCF7 breast was above 100 µM throughout.

Turning to `COC(=O)[C@@]1(O)C[C@H]2O[C@]1(C)n1c3ccccc3c3c4c(c5c6ccccc6n2c5c31)C(=O)NC4`, the GI50 was 0.415 µM in the assay on NCI/ADR-RES ovarian, 0.248 µM with HS 578T breast and 0.194 µM in the assay on MCF7 breast. In addition, the figures for the TGI in the assay with NCI/ADR-RES ovarian, in the assay on HS 578T breast and in the assay with MCF7 breast were 3.56 µM, 2.06 µM and 4.34 µM, respectively.

With `O=C(/C=C/c1ccc(C(F)(F)F)cc1)c1ccc(Nc2nc(NCCO)nc(N3CCOCC3)n2)cc1`, the GI50 is 2.87 µM with NCI/ADR-RES ovarian, 2.61 µM with HS 578T breast and 1.25 µM in the assay with MCF7 breast. Also, the TGI in the assay with NCI/ADR-RES ovarian stood at 9.52 µM; with MCF7 breast, 3.95 µM.

Turning to `COc1ccc2nc(C)cc(Nc3ccccc3O)c2c1`, the GI50 is 47.2 µM in the assay with NCI/ADR-RES ovarian, 31.9 µM with HS 578T breast and 20.5 µM with MCF7 breast. Also, the TGI with NCI/ADR-RES ovarian was above 100 µM; in the assay on HS 578T breast, above 100 µM; with MCF7 breast, 51.2 µM.

`N#CC1=C(N)Oc2c(sc3c(F)cccc23)C1c1ccc(F)cc1` (centres undefined): the GI50 with NCI/ADR-RES ovarian is 0.375 µM; in the assay on HS 578T breast it was 0.414 µM; with MCF7 breast, 0.391 µM. The figures for the TGI in the assay on NCI/ADR-RES ovarian, in the assay on HS 578T breast and in the assay on MCF7 breast were 4.36 µM, 11.4 µM and 12.4 µM, respectively.

In the case of `CS(=O)(=O)Nc1cc(-c2ccc3ncnc(Nc4ccc5c(cnn5Cc5ccccc5F)c4)c3c2)cnc1Cl`, the GI50 in the assay with NCI/ADR-RES ovarian is 8.32 µM; in the assay with HS 578T breast, 0.249 µM; with MCF7 breast, 1.48 µM. In addition, the TGI in the assay with NCI/ADR-RES ovarian is above 100 µM; in the assay on HS 578T breast it was 1.84 µM; with MCF7 breast, 30.3 µM.

For `CC1/C(=N/Nc2ccc([N+](=O)[O-])cc2)CC2C3(C)CCC2(C(C)C(=O)O)C(=O)C13` (centres undefined), the GI50 is 5.7 µM with NCI/ADR-RES ovarian, 3.55 µM with HS 578T breast and 7.17 µM with MCF7 breast. Moreover, the TGI in the assay with NCI/ADR-RES ovarian, with HS 578T breast and in the assay with MCF7 breast was above 100 µM in each case.

Turning to `O=C1C(=O)c2ccccc2C(O)=C1CCCCCCCCC1CCCCC1`, the TGI with NCI/ADR-RES ovarian is 25.3 µM; in the assay with HS 578T breast, 39.6 µM; with MCF7 breast it was 19.4 µM.

Consider `COC(=O)c1cc2oc(/C=C3\SC(=S)N(NC(C)=O)C3=O)cc2n1Cc1ccccc1`, for which the GI50 with NCI/ADR-RES ovarian is 7.77 µM; in the assay with HS 578T breast it was 6.61 µM; in the assay on MCF7 breast it was 2.53 µM. For the same compound, the TGI was 19.5 µM in the assay with NCI/ADR-RES ovarian, above 50 µM in the assay with HS 578T breast and above 50 µM in the assay on MCF7 breast.

`CC(=O)c1c[nH]cc1CO`: the TGI in the assay with NCI/ADR-RES ovarian and in the assay with MCF7 breast was above 10 µM in each case.

`CC1=C(C(=O)Nc2ccc(F)c(Cl)c2)C(c2cccc(Oc3ccccc3)c2)NC(=O)N1` (centres undefined): the GI50 is 19 µM in the assay with NCI/ADR-RES ovarian, 12.2 µM in the assay on HS 578T breast and 17.6 µM in the assay with MCF7 breast. Moreover, the TGI with NCI/ADR-RES ovarian came out at 37.2 µM; in the assay with HS 578T breast, 32.9 µM; with MCF7 breast it was 43.7 µM.

As to `C=C1CC[C@@H]2[C@](C)(COC(C)=O)[C@H](OC(C)=O)CC[C@@]2(C)[C@@H]1C/C=C1/C(=O)OC[C@H]1OC(C)=O`, the GI50 is 4.22 µM with NCI/ADR-RES ovarian, 12.3 µM in the assay on HS 578T breast and 1.83 µM with MCF7 breast. The TGI in the assay with NCI/ADR-RES ovarian was 19.8 µM; in the assay on HS 578T breast, 55.3 µM; in the assay with MCF7 breast, 6.79 µM.

Regarding `COc1cccc2c(=O)c3c(sc12)c(NCCN(C)C)nc1ccccc13`, the GI50 is 1.31 µM in the assay with NCI/ADR-RES ovarian, 1.69 µM in the assay with HS 578T breast and 1.25 µM in the assay with MCF7 breast. Besides, the TGI with NCI/ADR-RES ovarian came out at 3.03 µM; with HS 578T breast, 4.81 µM; in the assay on MCF7 breast it was 2.7 µM.

Consider `Oc1ccc(N=Nc2ccc(N=Nc3ccccc3)cc2)cc1`, for which the figures for the GI50 in the assay on NCI/ADR-RES ovarian, in the assay on HS 578T breast and in the assay on MCF7 breast were 3.67 µM, 12.4 µM and 1.5 µM, respectively. The TGI stood at 39.5 µM with NCI/ADR-RES ovarian, 51 µM in the assay on HS 578T breast and 6.86 µM in the assay with MCF7 breast.

As to `CN1CCn2c(c(Sc3ccc(C(=O)NO)cc3)c3ccccc32)C1=O`, the GI50 in the assay on NCI/ADR-RES ovarian is 8.82 µM; in the assay with HS 578T breast, 2.41 µM; in the assay on MCF7 breast, 2.8 µM. Also, the figures for the TGI in the assay on NCI/ADR-RES ovarian, in the assay on HS 578T breast and with MCF7 breast were above 87.1 µM, above 29 µM and above 77.1 µM, respectively.

As to `C=C1C(=O)O[C@H]2[C@H]1CC/C(CNS(=O)(=O)c1cccc3ccccc13)=C\CC[C@@]1(C)O[C@@H]21`, the GI50 in the assay on NCI/ADR-RES ovarian was 5.08 µM; with HS 578T breast it was 3.46 µM; in the assay on MCF7 breast, 1.36 µM. Also, the TGI in the assay with NCI/ADR-RES ovarian worked out at 20.6 µM; in the assay on HS 578T breast, 18.4 µM; in the assay with MCF7 breast, 3.14 µM.
